Biological target: T1, human CTPS1 (Homo sapiens, UniProt P17812)
T1 construct: FLAG (with GG linker); His8 (with GG linker); purchased Proteros biostructures GmbH
T1 sequence (P17812 1-591): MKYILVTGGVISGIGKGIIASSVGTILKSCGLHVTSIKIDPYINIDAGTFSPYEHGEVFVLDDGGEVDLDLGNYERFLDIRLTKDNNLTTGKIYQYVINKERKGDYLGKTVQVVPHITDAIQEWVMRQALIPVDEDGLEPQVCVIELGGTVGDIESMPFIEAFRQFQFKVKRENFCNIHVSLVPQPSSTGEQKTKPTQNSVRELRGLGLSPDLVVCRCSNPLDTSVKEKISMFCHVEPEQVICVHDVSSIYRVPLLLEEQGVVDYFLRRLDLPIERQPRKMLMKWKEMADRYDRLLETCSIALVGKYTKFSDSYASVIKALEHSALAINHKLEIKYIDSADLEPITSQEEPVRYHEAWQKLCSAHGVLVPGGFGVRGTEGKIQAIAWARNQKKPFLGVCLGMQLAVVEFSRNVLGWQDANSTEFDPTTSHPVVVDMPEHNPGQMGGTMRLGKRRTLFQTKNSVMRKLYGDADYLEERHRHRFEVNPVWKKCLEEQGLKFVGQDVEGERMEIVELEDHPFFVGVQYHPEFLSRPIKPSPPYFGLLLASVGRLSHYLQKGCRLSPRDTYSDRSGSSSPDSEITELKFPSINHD
Assay: Human CTPS1 enzyme inhibition, ADP-Glo Max assay
Assay type: biochemical
Settings: ADP-Glo Max assay; Table 10; read-out: Human CTPS1 Enzyme Inhibition, IC50 grouped by potency range (CTPS1)
How it was run: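 Read-out is ADP-Glo Max luminescence: residual ATP depleted (60 min), then produced ADP converted back to ATP for luciferase detection (60 min). Beforehand, protein and compound were mixed for 10 min at 25 °C in Tris buffer pH 8.0 with MgCl2, Tween-20 and 2 mM L-cysteine. Results expressed as percentage inhibition per concentration.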

Structure (SMILES) | IC50
Cc1c(Cl)cncc1-c1ccc(NC(=O)C(C)(C)c2csc(NS(=O)(=O)C3CC3)n2)cc1 [T428, N-(4-(5-chloro-4-methylpyridin-3-yl)phenyl)-2-(2-(cyclopropanesulfonamido)thiazol-4-yl)-2-methylpropanamide] | 100 to 1000 nM
CCOc1cncc(-c2ccc(NC(=O)C(C)(C)c3csc(NS(C)(=O)=O)n3)cc2)n1 [T434, N-(4-(6-ethoxypyrazin-2-yl)phenyl)-2-methyl-2-(2-(methylsulfonamido)thiazol-4-yl)propanamide] | < 100 nM
Cc1cncc(-c2ccc(NC(=O)C(C)(C)c3csc(NS(=O)(=O)C4CC4)n3)nc2)n1 [T464, 2-(2-(cyclopropanesulfonamido)thiazol-4-yl)-2-methyl-N-(5-(6-methylpyrazin-2-yl)pyridin-2-yl)propanamide] | < 100 nM
Cc1cc(-c2cncc(C#N)n2)ccc1NC(=O)C(C)(C)c1csc(NS(=O)(=O)C2CC2)n1 [T465, N-(4-(6-cyanopyrazin-2-yl)-2-methylphenyl)-2-(2-(cyclopropanesulfonamido)thiazol-4-yl)-2-methylpropanamide] | 1000 to 10000 nM

Second part, the molecule after the results:

IC50 | Structure (SMILES)
< 100 nM | CCOc1cncc(-c2ccc(NC(=O)C(C)(C)c3csc(NS(C)(=O)=O)n3)c(C(F)(F)F)c2)n1 [T429, N-(4-(6-ethoxypyrazin-2-yl)-2-(trifluoromethyl)phenyl)-2-methyl-2-(2-(methylsulfonamido)thiazol-4-yl)propanamide]
100 to 1000 nM | CC(C)(C(=O)Nc1ccc(-c2cncc(C(F)(F)F)n2)cc1F)c1csc(NS(=O)(=O)CC2CC2)n1 [T430, 2-(2-((cyclopropylmethyl)sulfonamido)thiazol-4-yl)-N-(2-fluoro-4-(6-(trifluoromethyl)pyrazin-2-yl)phenyl)-2-methylpropanamide]
< 100 nM | CCOc1cncc(-c2ccc(NC(=O)C(C)(C)c3csc(NS(C)(=O)=O)n3)c(F)c2)n1 [T431, N-(4-(6-ethoxypyrazin-2-yl)-2-fluorophenyl)-2-methyl-2-(2-(methylsulfonamido)thiazol-4-yl)propanamide]
100 to 1000 nM | CCOc1cncc(-c2ccc(NC(=O)C(C)(C)c3csc(NS(=O)(=O)CCOC)n3)c(F)c2)n1 [T432, N-(4-(6-ethoxypyrazin-2-yl)-2-fluorophenyl)-2-(2-((2-methoxyethyl)sulfonamido)thiazol-4-yl)-2-methylpropanamide]

Biological target: T1, human CTPS1
Assay: RapidFire/MS-based enzyme selectivity assay (human CTPS1 versus CTPS2), CTPS1 isoform
Assay type: biochemical
Settings: RapidFire/MS IC50 values of CTPS1 and CTPS2; Table 15
Experimental: Human CTPS1 Versus CTPS2 Selectivity Assessment by RapidFire/MS Analysis.
The enzyme inhibitory activities against each target isoform of interest may be determined for the compounds of the invention using an optimised RapidFire high-throughput mass spectrometry (RF/MS) assay format. RF/MS assays for both human CTPS1 and CTPS2 may be performed in assay buffer consisting of 50 mM HEPES (Merck), 20 mM MgCl2, 5 mM KCl, 1 mM DTT, 0.01% Tween-20, pH to 8.0 accordingly. Human full-length active C-terminal FLAG-His-tag CTPS1 (UniProtKB—P17812, CTPS1[1-591]-[…] (CTPS1[1-591]-SEQ ID NO: 1)) may be obtained from Proteros biostructures GmbH. Human full length active C-terminal FLAG-His-Avi tagged CTPS2 (UniProtKB—Q9NRF8, CTPS2 [1-586]-[…] (CTPS2 [1-586]—SEQ ID NO: 2)) may be obtained from Harker Bio.
Human CTPS (1 or 2) protein may be prepared in 1× assay buffer to the final working protein concentration required for the reaction. A 2 uL volume per well of 2×CTPS (1 or 2) protein may be mixed with 40 nL of compound using acoustic (ECHO) delivery and incubated for 10 minutes at 25° C. Each isoform enzymatic reaction may be subsequently initiated by addition of 2 uL per well of a 2× substrate mix in assay buffer. For hCTPS1: ATP (0.3 mM), UTP (0.2 mM), GTP (0.07 mM) and L-glutamine (0.1 mM). For hCTPS2: ATP (0.1 mM), UTP (0.04 mM), GTP (0.03 mM) and L-glutamine (0.1 mM). Each mixture may be incubated for an appropriate amount of time per isoform within the determined linear phase of the reaction at 25° C. A 80 uL volume of stop solution (1% formic acid with 0.5 uM ^13C9-^15N3-CTP in H2O) may be added and the plate immediately heat-sealed and centrifuged for 10 minutes at 4,000 rpm. Following centrifugation, plates may be loaded onto the Agilent RapidFire microfluidic solid phase extraction system coupled to an API4000 triple quadrupole mass spectrometer (RF/MS) for analysis.
In all cases, the enzyme converts UTP to CTP. Highly specific and sensitive multiple reaction monitoring (MRM) MS methods may be optimised for the detection of the enzymatic reaction product, CTP, and the stable isotope labelled product standard ^13C9-^15N3-CTP. Readout for data analysis may be calculated as the ratio between the peak area of the product CTP and the internal standard ^13C9-^15N3-CTP. For data reporting, the following equation may be used:
(R=ratio/readout, P=product signal area, IS=internal standard signal area)
For each screening plate, the means of the negative (DMSO) and positive control values were used for the calculation of the respective assay window (S/B) and Z′ values. The median of the respective control values was used for calculation of percent inhibition according to the following equation:
(I=Inhibition, Rneq=median of negative control readout values, Rpos=median of positive control readout values, Rsample=sample readout value)
Percentage inhibition was then plotted against compound concentration, and the 50% inhibitory concentration (IC50) was determined from the resultant concentration-response curve.
Fold selectivity between CTPS1 and CTPS2 was subsequently calculated according to the following equation: […]

Structure (SMILES) | Selectivity (fold selectivity between CTPS1 and CTPS2)
CCOc1cncc(-c2ccc(NC(=O)C(C)(OC)c3cncc(NS(=O)(=O)C4CC4)n3)nc2)n1 (single isomer, unassigned) [P205b, 2-(6-(cyclopropanesulfonamido)pyrazin-2-yl)-N-(5-(6-ethoxypyrazin-2-yl)pyridin-2-yl)-2-methoxypropanamide] | ++ (>30-60 fold (++))
CCOc1cncc(-c2ccc(NC(=O)C(F)(CC)c3cncc(NS(=O)(=O)C4CC4)n3)nc2)n1 (single isomer, unassigned) [P206, 2-(6-(2-cyclopropanesulfonamido)pyrazin-2-yl)-N-(5-(6-ethoxypyrazin-2-yl)pyridin-2-yl)-2-fluorobutanamide] | +++ (>60 fold (+++))
CCOc1cncc(-c2ccc(NC(=O)C(F)(CC)c3cncc(NS(=O)(=O)C4CC4)n3)nc2)n1 (single isomer, unassigned) [P207, 2-(6-(cyclopropanesulfonamido)pyrazin-2-yl)-N-(5-(6-ethoxypyrazin-2-yl)pyridin-2-yl)-2-fluorobutanamide] | + (2-30 fold (+))

Other lines, results leading:

Selectivity (fold selectivity between CTPS1 and CTPS2) | Structure (SMILES)
+ (2-30 fold (+)) | CCOc1cncc(-c2ccc(NC(=O)C(F)(CC)c3ccnc(NS(=O)(=O)C4CC4)n3)nc2)n1 (single isomer, unassigned) [P113, 2-(2-(Cyclopropanesulfonamido)pyrimidin-4-yl)-N-(5-(6-ethoxypyrazin-2-yl)pyridin-2-yl)-2-fluorobutanamide]
+++ (>60 fold (+++)) | CCOc1cncc(-c2ccc(NC(=O)C(F)(CC)c3ccnc(NS(=O)(=O)C4CC4)n3)nc2)n1 (single isomer, unassigned) [P114, 2-(2-(Cyclopropanesulfonamido)pyrimidin-4-yl)-N-(5-(6-ethoxypyrazin-2-yl)pyridin-2-yl)-2-fluorobutanamide]
+++ (>60 fold (+++)) | CCOc1cncc(-c2ccc(NC(=O)C(C)(OC)c3cncc(NS(=O)(=O)C4CC4)n3)nc2)n1 (single isomer, unassigned) [P205a, 2-(6-(cyclopropanesulfonamido)pyrazin-2-yl)-N-(5-(6-ethoxypyrazin-2-yl)pyridin-2-yl)-2-methoxypropanamide]

Same assay, conditions: RapidFire/MS IC50 values of CTPS1 and CTPS2; Table 17

Selectivity (fold selectivity between CTPS1 and CTPS2) | Structure (SMILES)
+++ (>60 fold (+++)) | CCOc1cncc(-c2ccc(NC(=O)C3(c4ccnc(NS(=O)(=O)C5CC5)n4)CCC(O)CC3)nc2)n1 (single isomer, unassigned) [P227, 1-(2-(cydopropanesulfonamido)pyrimidin-4-yl)-N-(5-(6-ethoxypyrazin-2-yl)pyridin-2-yl)-4-hydroxycyclohexanecarboxamide]
+++ (>60 fold (+++)) | CCOc1cncc(-c2ccc(NC(=O)C3(c4ccnc(NS(=O)(=O)C5CC5)n4)CCC(O)CC3)nc2)n1 (single isomer, unassigned) [P228, 1-(2-(cyclopropanesulfonamido)pyrimidin-4-yl)-N-(5-(6-ethoxypyrazin-2-yl)pyridin-2-yl)-4-hydroxycyclohexanecarboxamide]

Same assay, conditions: Table 16, human CTPS1 over human CTPS2, RapidFire/MS IC50 values

Selectivity (fold selectivity between CTPS1 and CTPS2) | Structure (SMILES)
+++ (>60 fold (+++)) | CCOc1cncc(-c2ccc(C(=O)NC(CC)c3csc(NS(=O)(=O)C4CC4)n3)c(F)c2)n1 (racemic) [R62, N-(1-(2-(cyclopropanesulfonamido)thiazol-4-yl)propyl)-4-(6-ethoxypyrazin-2-yl)-2-fluorobenzamide]
+ (2-30 fold (+)) | CCOc1cncc(-c2ccc(C(=O)N(C)C(CC)c3csc(NS(=O)(=O)C4CC4)n3)c(F)c2)n1 (racemic) [R63, N-(1-(2-(cyclopropanesulfonamido)thiazol-4-yl)propyl)-4-(6-ethoxypyrazin-2-yl)-2-fluoro-N-methylbenzamide]
++ (>30-60 fold (++)) | CCC(NC(=O)c1ccc(-c2cncc(OC(C)C)n2)cc1F)c1csc(NS(=O)(=O)C2CC2)n1 (racemic) [R64, N-(1-(2-(cyclopropanesulfonamido)thiazol-4-yl)propyl)-2-fluoro-4-(6-isopropoxypyrazin-2-yl)benzamide]
